According to patent US10301317B2, “Inhibitors of ERK and methods of use” (Kura Oncology, Inc., priority 2013, dated 2019):

Tests used:
[1] = molecular target: ERK2 enzyme (Homo sapiens (Human), UniProt P28482); assay: Z'-LYTE kinase assay, inhibition of ERK activity; format: biochemical; conditions: 100 μM ATP
Protocol: The inhibition of ERK activity by the compounds disclosed herein was determined using the Z′-LYTE kinase assay kit (Life Technologies) with a Ser/Thr 3 peptide substrate (Life Technologies) according to manufacturers' instructions. […] The IC50 values for the compounds were determined with 3-fold serial dilutions in duplicate. […] The final DMSO concentration in the assay was 1%. Final reaction volume was 20 μL/well in 384-well plates. Kinase reactions were conducted or 1 hour followed by the assay development reaction (1 hour) in a 20 ul/well in a 384 well plate format.

[2] = test system: phospho-p90 RSK (RSK1 Thr359/Ser363) in A375 (Braf V600E) cells; assay: Phospho-p90 RSK ELISA using A375 (Braf V600E) cells; format: cell-based; conditions: Homo sapiens, A-375, 2 hours compound treatment, read-out: Cellular Phospho-p90RSK IC50
[3] = test system: A375 cells; assay: Tumor cell line proliferation assay (CellTiter Glo), A375; format: cell-based; conditions: Homo sapiens, A-375, 96 h, read-out: A375 (V599E) Cell Proliferation IC50
[4] = test system: WM-266-4 cells; assay: Tumor cell line proliferation assay (CellTiter Glo), WM-266-4; format: cell-based; conditions: Homo sapiens, 96 hours, read-out: WM-266-4 (V599D) Cell Proliferation IC50
[5] = test system: H358 (Kras, G12C) cells; assay: Tumor cell line proliferation assay (CellTiter Glo), H358; format: cell-based; conditions: Homo sapiens, NCI-H358, 96 hours

Chain of ERK2 enzyme (P28482 whole entry): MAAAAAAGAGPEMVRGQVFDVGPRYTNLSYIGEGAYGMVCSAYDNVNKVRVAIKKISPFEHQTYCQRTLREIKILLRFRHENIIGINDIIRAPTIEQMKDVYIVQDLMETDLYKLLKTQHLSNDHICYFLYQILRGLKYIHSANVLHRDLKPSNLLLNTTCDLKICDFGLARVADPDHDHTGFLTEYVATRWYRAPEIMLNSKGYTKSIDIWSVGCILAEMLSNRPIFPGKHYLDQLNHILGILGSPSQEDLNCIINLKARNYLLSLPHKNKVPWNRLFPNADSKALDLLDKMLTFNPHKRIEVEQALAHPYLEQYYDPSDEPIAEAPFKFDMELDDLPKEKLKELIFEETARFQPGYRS

| Structure (SMILES) | IC50 ([1]; In vitro Erk2, Z'-LYTE kinase assay) [nM] | IC50 [2] [nM] | IC50 [3] [nM] | IC50 [4] [nM] | IC50 ([1]; In vitro, ERK2 enzyme) [nM] | IC50 [5] [nM] |
| --- | --- | --- | --- | --- | --- | --- |
| O=C1Nc2cc3[nH]nc(CC4CCOCC4)c3cc2CN1[C@@H]1CN(CC(F)(F)F)C[C@H]1c1ccccc1 [Example 361] | 50 to 250 | ≤ 250 |  |  |  |  |
| COc1ncccc1CN1Cc2cc3c(-c4ccnc(C)c4)n[nH]c3cc2NC1=O [Example 9] |  | 250 to 1000 | > 1000 | 250 to 1000 |  |  |
| Cc1cc(-c2n[nH]c3cc4c(cc23)CN(Cc2cccc(Cl)c2)C(=O)N4)ccn1 [Example 4] |  | ≤ 250 | ≤ 250 | ≤ 250 |  |  |
| Cc1cc(-c2n[nH]c3cc4[nH]c(=O)c(C(C)c5ccccc5)cc4cc23)ccn1 (stereo not shown) [Example 22] |  | ≤ 250 | ≤ 250 | ≤ 250 |  |  |
| Cc1cc(-c2n[nH]c3cc4c(cc23)CN([C@H](C)c2ccc(Cl)cc2)C(=O)N4)ccn1 [Example 16] |  | ≤ 250 | 250 to 1000 | 250 to 1000 | 50 to 250 |  |
| COc1ccc(CN2Cc3cc4c(-c5ccnc(C)c5)n[nH]c4cc3NC2=O)cc1 [Example 10] |  | ≤ 250 | 250 to 1000 | ≤ 250 |  |  |
| Cc1cc(-c2n[nH]c3cc4[nH]c(=O)c(Cc5ccc(F)cc5)cc4cc23)ccn1 [Example 21] |  | 250 to 1000 | 250 to 1000 | 250 to 1000 |  |  |
| Cc1cc(-c2n[nH]c3cc4c(cc23)CN(Cc2ccc(F)c(Cl)c2)C(=O)N4)ccn1 [Example 8] |  | ≤ 250 | 250 to 1000 | ≤ 250 |  |  |
| Cc1cc(-c2n[nH]c3cc4c(cc23)CN(C2(c3ccc(F)cc3)CC2)C(=O)N4)ccn1 [Example 17] |  | 250 to 1000 | > 1000 | > 1000 |  |  |
| O=C1Nc2cc3[nH]nc(-c4ccncc4)c3cc2CN1Cc1ccccc1 [Example 1, 6-benzyl-3-(pyridin-4-yl)-1,5,6,8-tetrahydro-7H-pyrazolo[4,3-g]quinazolin-7-one] |  | ≤ 250 | ≤ 250 | ≤ 250 |  | ≤ 250 |
| Cc1cc(-c2n[nH]c3cc4[nH]c(=O)n(Cc5ccc(F)c(Cl)c5)c(=O)c4cc23)ccn1 [Example 15] |  | 250 to 1000 | > 1000 | > 1000 |  |  |
| Cc1cc(-c2n[nH]c3cc4c(cc23)CN([C@H](C)c2ccc(F)cc2)C(=O)N4)ccn1 [Example 5] |  | 250 to 1000 | > 1000 | 250 to 1000 |  |  |
| Cc1cc(-c2n[nH]c3cc4c(cc23)CN(Cc2ccc(F)c(F)c2)C(=O)N4)ccn1 [Example 13] |  | ≤ 250 | 250 to 1000 | 250 to 1000 |  |  |
| Cc1cc(-c2n[nH]c3cc4c(cc23)CN(C2CN(Cc3cc(F)cc(F)c3)CC(F)(F)C2)C(=O)N4)ccn1 (stereo not shown) [Example 202] |  | > 1000 | > 1000 |  |  | > 1000 |
| Cc1cc(-c2n[nH]c3cc4c(cc23)CN(Cc2ccc(Cl)cc2)C(=O)N4)ccn1 [Example 14] |  | ≤ 250 | 250 to 1000 | 250 to 1000 |  |  |
| Cc1cc(-c2n[nH]c3cc4c(cc23)CN([C@@H]2CN(CC(F)(F)F)C[C@H]2c2ccccc2)C(=O)N4)ccn1 [Example 222] |  | ≤ 250 | 250 to 1000 |  |  | 250 to 1000 |
| [2H]c1c([2H])c([2H])c(C([2H])([2H])N2CCC[C@@H](N3Cc4cc5c(-c6ccnc(C)c6)n[nH]c5cc4NC3=O)C2)c([2H])c1[2H] [Example 165] |  | ≤ 250 | ≤ 250 |  |  | ≤ 250 |
| Cc1cc(-c2n[nH]c3cc4c(cc23)CN(CCc2ccc(F)cc2)C(=O)N4)ccn1 [Example 18] |  | ≤ 250 | 250 to 1000 | 250 to 1000 |  |  |
| O=C1Nc2cc3[nH]nc(-c4ccnnc4)c3cc2CN1[C@@H]1CCCN(Cc2ccccc2)C1 [Example 120] |  | ≤ 250 | 250 to 1000 |  |  | 250 to 1000 |
| Cc1cc(-c2n[nH]c3cc4[nH]c(=O)n(Cc5ccccc5)c4cc23)ccn1 [Example 19] |  | 250 to 1000 | > 1000 | > 1000 |  |  |
| Cc1cc(-c2n[nH]c3cc4c(cc23)CN([C@@H]2CCCOC2)C(=O)N4)ccn1 [Example 49] |  | 250 to 1000 | > 1000 |  |  | > 1000 |
| O=C1Nc2cc3[nH]nc(-c4ccncc4)c3cc2CN1Cc1cccc(Cl)c1 [Example 3] |  | ≤ 250 | ≤ 250 | ≤ 250 |  |  |
| Cc1cc(-c2n[nH]c3cc4[nH]c(=O)c([C@H](C)c5ccccc5)cc4cc23)ccn1 [Example 84] |  | ≤ 250 | ≤ 250 |  |  | ≤ 250 |
| Cc1cc(-c2n[nH]c3cc4c(cc23)CN(Cc2ccc(C(F)(F)F)cc2)C(=O)N4)ccn1 [Example 12] |  | ≤ 250 | 250 to 1000 | ≤ 250 |  |  |
